The supplement of paper PMC13380429

What was measured:
Settings in all cases: 72 h
[1] = tested on: Vero E6; test: drug sensitivity score (DSS) for viability; higher = more toxic; extreme values may be limits of the assay
[2] = tested on: Calu-3; test: as above
[3] = tested on: U2OS; test: as above
[4] = tested on: Caco-2; test: as above
[5] = tested on: HepG2; test: as above
[6] = tested on: Vero E6; test: cell viability relative to DMSO; higher = less toxic
[7] = tested on: Calu-3; test: as above
[8] = tested on: U2OS; test: as above
[9] = tested on: Caco-2; test: as above
[10] = tested on: HepG2; test: as above
[11] = tested on: Vero E6; test: relative viability EC50 (midpoint between 100% and the lowest measured viability); higher = less toxic
[12] = tested on: Calu-3; test: as above
[13] = tested on: U2OS; test: as above
[14] = tested on: Caco-2; test: as above
[15] = tested on: HepG2; test: as above

Compound | drug sensitivity score [1] | drug sensitivity score [2] | drug sensitivity score [3] | drug sensitivity score [4] | drug sensitivity score [5] | cell viability ([6]; 1 nM) [%] | cell viability ([6]; 10 nM) [%] | cell viability ([6]; 100 nM) [%] | cell viability ([6]; 1000 nM) [%] | cell viability ([6]; 10000 nM) [%] | cell viability ([7]; 1 nM) [%] | cell viability ([7]; 10 nM) [%] | cell viability ([7]; 100 nM) [%] | cell viability ([7]; 1000 nM) [%] | cell viability ([7]; 10000 nM) [%] | cell viability ([8]; 1 nM) [%] | cell viability ([8]; 10 nM) [%] | cell viability ([8]; 100 nM) [%] | cell viability ([8]; 1000 nM) [%] | cell viability ([8]; 10000 nM) [%] | cell viability ([9]; 1 nM) [%] | cell viability ([9]; 10 nM) [%] | cell viability ([9]; 100 nM) [%] | cell viability ([9]; 1000 nM) [%] | cell viability ([9]; 10000 nM) [%] | cell viability ([10]; 1 nM) [%] | cell viability ([10]; 10 nM) [%] | cell viability ([10]; 100 nM) [%] | cell viability ([10]; 1000 nM) [%] | cell viability ([10]; 10000 nM) [%] | relative viability EC50 [11] [µM] | relative viability EC50 [12] [µM] | relative viability EC50 [13] [µM] | relative viability EC50 [14] [µM] | relative viability EC50 [15] [µM]
O=C(NC(Cc1cc(=O)[nH]c2ccccc12)C(=O)O)c1ccc(Cl)cc1 (stereo not given) [rebamipide] | 0 | 0 | 0 | 0 | 0 | 101 | 96 | 97.6 | 96.8 | 110 | 99.2 | 97.5 | 92.7 | 99.7 | 106 | 90.5 | 96.7 | 93.9 | 103 | 110 | 92.6 | 97.7 | 89.9 | 100 | 99.3 | 107 | 89.4 | 108 | 105 | 104 | > 10 | > 10 | > 10 | > 10 | > 10
Oc1ccc(/C=C/c2cc(O)cc(O)c2)cc1 [resveratrol] | 0 | 0.1 | 0 | 0 | 0 | 97.5 | 97.3 | 94.9 | 100 | 98.6 | 106 | 103 | 94.8 | 93.7 | 87.2 | 97.7 | 95 | 96.9 | 106 | 106 | 93.3 | 91.6 | 95.8 | 99.3 | 90.1 | 107 | 116 | 108 | 97.9 | 104 | > 10 | > 10 | > 10 | > 10 | > 10
OC[C@@H](O)[C@@H](O)[C@@H](O)CO [ribitol] | 0 | 0 | 0 | 0 | 0 | 93.7 | 100 | 97.8 | 99.2 | 101 | 102 | 93 | 98.1 | 96.6 | 98 | 98.9 | 96.2 | 97.4 | 93 | 102 | 100 | 97 | 104 | 102 | 103 | 101 | 90.9 | 111 | 100 | 105 | > 10 | > 10 | > 10 | > 10 | > 10
CO[C@H]1/C=C/O[C@@]2(C)Oc3c(C)c(O)c4c(O)c(c(/C=N/N5CCN(C6CCCC6)CC5)c(O)c4c3C2=O)NC(=O)/C(C)=C\C=C\[C@H](C)[C@H](O)[C@@H](C)[C@@H](O)[C@@H](C)[C@H](OC(C)=O)[C@@H]1C [rifapentine] | 0 | 0 | 0.2 | 0.7 | 0 | 96.2 | 93.7 | 97 | 89.1 | 97.7 | 101 | 104 | 94.4 | 111 | 88.2 | 96.3 | 103 | 95.3 | 100 | 85.7 | 95.2 | 94.9 | 94.4 | 102 | 77.6 | 96.4 | 92.9 | 94 | 97.7 | 89.3 | > 10 | > 10 | > 10 | > 10 | > 10
N[C@@H]1c2cccnc2[C@H](OC(=O)N2CCC(n3c(=O)[nH]c4ncccc43)CC2)CC[C@H]1c1cccc(F)c1F [rimegepant] | 0 | 0 | 0 | 0 | 0 | 97 | 96.8 | 91.6 | 99.7 | 112 | 90.7 | 95.3 | 98.4 | 92.9 | 97.6 | 102 | 96.1 | 101 | 97.2 | 100 | 99.3 | 94.5 | 98.1 | 91.2 | 102 | 92.4 | 98.6 | 98.8 | 106 | 104 | > 10 | > 10 | > 10 | > 10 | > 10
C[C@H]1CNCCCN1S(=O)(=O)c1cccc2cncc(F)c12 [ripasudil] | 0.2 | 0 | 0 | 0 | 0.3 | 109 | 103 | 105 | 91.6 | 88.7 | 88.6 | 98.1 | 102 | 138 | 143 | 98.4 | 100 | 99.4 | 99.8 | 92.9 | 92 | 90.4 | 87.5 | 99.2 | 101 | 111 | 101 | 101 | 92.1 | 88 | > 10 | > 10 | > 10 | > 10 | > 10
O=P(O)(O)C(O)(Cc1cccnc1)P(=O)(O)O [risedronate] | 0 | 0 | 0 | 0 | 0 | 93.1 | 98.7 | 93 | 94.8 | 104 | 97.9 | 98.7 | 103 | 99.2 | 104 | 102 | 96.1 | 98 | 96.2 | 96 | 95.6 | 103 | 94.1 | 97.8 | 94.7 | 83.2 | 97.1 | 95.5 | 93.2 | 101 | > 10 | > 10 | > 10 | > 10 | > 10
